Reference: patent US20220249492A1, “ANTICANCER COMBINATION THERAPY” (Boehringer Ingelheim International GmbH, priority 2019, published 2022)

Experiments:
[1] = tested on: ERK phosphorylation (pERK Thr202/Tyr204) in DLD-1 cells (KRAS G13D); assay: ERK phosphorylation assay (AlphaLISA SureFire Ultra p-ERK1/2) in DLD-1 cells; assay type: cell-based; details: Homo sapiens, 1 h compound incubation, EGF 50 ng/mL for 10 minutes
Experimental: ERK Phosphorylation Assay
Low IC50 values are indicative of high potency of the SOS1 inhibitors in this assay setting.
ERK phosphorylation assays are performed using the following human cell lines:
DLD-1 (ATCC CCL-221): human colon cancer with a KRAS G13D mutation;
DLD-1 cells (ATCC CCL-221) are seeded at 50,000 cells per well in/60 μL of RPMI with 10% FBS, non-essential amino acids, pyruvate and glutamax in Greiner TC 384 plates. The cells are incubated for 1 h at room temperature and then incubated overnight in an incubator at 37° C. and 5% CO2 in a humidified atmosphere. 60 nL compound solution (10 mM DMSO stock solution) is then added using a Labcyte Echo 550 device. After a 1 h incubation in the aforementioned incubator, 3 μL Epidermal Growth Factor (EGF, final concentration 50 ng/mL) is added. […] After 20 minutes of incubation at room temperature with shaking, 6 μL of each lysate sample is transferred to a 384-well Proxiplate and analyzed for pERK (Thr202/Tyr204) with the AlphaLISA SureFire Ultra pERK1/2 (Thr202/Tyr204) Assay Kit. 3 μL Acceptor Mix and 3 μL Donor Mix are added under subdued light and incubated for 2 h at room temperature in the dark, before the signal is measured on a Perkin Elmer Envision plate reader using 384 AlphaScreen settings for Proxiplates. […]

[2] = molecular target: T1, protein-protein interaction between SOS1 and KRAS G12D (Homo sapiens, UniProt Q07889); assay: KRAS::SOS1 AlphaScreen binding assay
T1 construct: GST-TEV-SOS1 (564-1049) is purchased from Viva Biotech Ltd; purchased Viva Biotech Ltd. (GST-TEV-SOS1); Xtal BioStructures, Inc. (K-Ras G12D) Lot #X129-110 (K-Ras)
T1 sequence (Q07889 564-1049): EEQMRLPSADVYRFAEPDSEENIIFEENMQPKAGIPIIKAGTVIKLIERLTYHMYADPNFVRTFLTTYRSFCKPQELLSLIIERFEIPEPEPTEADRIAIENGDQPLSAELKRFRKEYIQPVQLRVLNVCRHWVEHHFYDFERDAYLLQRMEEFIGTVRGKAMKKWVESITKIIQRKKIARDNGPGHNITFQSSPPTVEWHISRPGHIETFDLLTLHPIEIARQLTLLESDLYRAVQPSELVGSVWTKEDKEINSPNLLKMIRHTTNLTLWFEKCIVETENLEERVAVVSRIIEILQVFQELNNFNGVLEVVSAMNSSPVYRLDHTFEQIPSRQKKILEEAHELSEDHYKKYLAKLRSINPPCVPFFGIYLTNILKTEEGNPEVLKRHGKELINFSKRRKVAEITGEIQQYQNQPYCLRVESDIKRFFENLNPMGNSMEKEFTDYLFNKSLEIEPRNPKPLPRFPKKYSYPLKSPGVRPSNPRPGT
Experimental: KRAS::SOS1 AlphaScreen Binding Assay
Low IC50 values are indicative of high potency of the SOS1 inhibitors in this assay setting:
10 nM (final assay concentration) KRAS G12D, 10 μM (final assay concentration) GDP and 5 nM (final assay concentration) GST-SOS1 are mixed in assay buffer prior to use and kept at room temperature.
AlphaLISA Glutathione Acceptor Beads and AlphaScreen Streptavidin Donor Beads are mixed in assay buffer at a concentration of 10 μg/mL (final assay concentration) each prior to use and kept at room temperature.
Compounds are diluted to a final start concentration of 100 μM and are tested in duplicate. Assay-ready plates (ARPs) are generated using an Access Labcyte Workstation with a Labcyte Echo 550 or 555 accoustic dispenser. For compound a start concentration of 100 μM, 150 nL of compound solution is transferred per well in 11 concentrations in duplicate with serial 1:5 dilutions.
The assay is run using a fully automated robotic system in a darkened room below 100 Lux. 10 μL of KRAS::SOS1 GDP mix is added into columns 1-24 to the 150 nL of compound solution (final dilution in the assay 1:100, final DMSO concentration 1%).
After a 30 minute incubation time 5 μL of bead mix is added into columns 1-23. Plates are kept at room temperature in a darkened incubator. After a further 60 minute incubation, the signal is measured using a PerkinElmer Envision HTS Multilabel Reader using the AlphaScreen specifications from PerkinElmer. Each plate contains the following controls: • diluted DMSO+KRAS::SOS1 GDP mix+bead mix • diluted DMSO+KRAS::SOS1 GDP mix
IC50 values are calculated and analyzed using a 4 parametric logistic model.

[3] = Metabolic (microsomal) stability assay, human (HLM); assay type: in vitro ADME; details: human liver microsomes, 1 mg/mL protein, 1 μM test compound, 37° C.; predicted clearance as percent of liver blood flow
Experimental: (§1) Metabolic (Microsomal) Stability Assay:
(§2) The metabolic degradation of the test compound is assayed at 37° C. with pooled liver microsomes (mouse (MLM), rat (RLM) or human (HLM)). The final incubation volume of 74 μL per time point contains TRIS buffer (pH 7.5; 0.1 M), magnesium chloride (6.5 mM), microsomal protein (0.5 mg/mL for mouse/rat, 1 mg/mL for human specimens) and the test compound at a final concentration of 1 μM. Following a short preincubation period at 37° C., the reactions are initiated by addition of 8 μL beta-nicotinamide adenine dinucleotide phosphate, reduced form (NADPH, 10 mM) and terminated by transferring an aliquot into solvent after different time points. Additionally, the NADPH-independent degradation is monitored in incubations without NADPH, terminated at the last time point by addition of acetonitrile. The quenched incubations are pelleted by centrifugation (1811 g, 5 min). An aliquot of the supernatant is assayed by LC-MS/MS for the amount of parent compound.
(§3) In vitro intrinsic clearance (CLint,in vitro) is calculated from the time course of the disappearance of the test drug during the microsomal incubation. […] For better across species comparison the predicted clearance is expressed as percent of the liver blood flow [% QH] in the individual species. […]

[4] = Metabolic (microsomal) stability assay, rat (RLM); assay type: in vitro ADME; details: rat liver microsomes, 0.5 mg/mL protein, 1 μM test compound, 37° C.; predicted clearance as percent of liver blood flow
Experimental: as §1, §2, §3

[5] = Metabolic (microsomal) stability assay, mouse (MLM); assay type: in vitro ADME; details: mouse liver microsomes, 0.5 mg/mL protein, 1 μM test compound, 37° C.; predicted clearance as percent of liver blood flow
Experimental: as §1, §2, §3

CYP3A4 = molecular target: T2, CYP3A4 (Homo sapiens, UniProt P08684); assay: Time dependent inhibition of CYP3A4 assay (TDI 3A4); assay type: in vitro ADME; details: human liver microsomes, 25 uM test compound; hydroxy-midazolam formation after 30 min preincubation relative to 0 min preincubation
T2 construct: from tissue; host or cells: human liver microsomes
Experimental: Time dependent inhibition of CYP3A4 Assay (TDI 3A4):
The time dependent inhibition towards CYP3A4 is assayed in human liver microsomes (0.02 mg/mL) with midazolam (15 μM) as a substrate. The test compounds are preincubated in presence of NADPH with human liver microsomes (0.2 mg/mL) at a concentration of 25 uM for 0 min and 30 min. After preincubation, the incubate is diluted 1:10 and the substrate midazolam is added for the main incubation (15 min). The main incubation is quenched with acetonitrile and the formation of hydroxy-midazolam is quantified via LC/MS-MS. The formation of hydroxy-midazolam from the 30 min preincubation relative to the formation from the 0 min preincubation is used as a readout. Values of less than 100% mean that the substrate midazolam is metabolized to a lower extend upon 30 min preincubation compared to 0 min preincubation. In general low effects upon 30 min preincubation are desired (corresponding to values close to 100%)

[6] = KRAS::SOS1 AlphaScreen, KRAS G12D, IC50, tables 20 and 24
[7] = KRAS G12D::SOS1 AlphaScreen, measured without EDTA unless marked with an asterisk

T2 sequence (P08684 whole entry): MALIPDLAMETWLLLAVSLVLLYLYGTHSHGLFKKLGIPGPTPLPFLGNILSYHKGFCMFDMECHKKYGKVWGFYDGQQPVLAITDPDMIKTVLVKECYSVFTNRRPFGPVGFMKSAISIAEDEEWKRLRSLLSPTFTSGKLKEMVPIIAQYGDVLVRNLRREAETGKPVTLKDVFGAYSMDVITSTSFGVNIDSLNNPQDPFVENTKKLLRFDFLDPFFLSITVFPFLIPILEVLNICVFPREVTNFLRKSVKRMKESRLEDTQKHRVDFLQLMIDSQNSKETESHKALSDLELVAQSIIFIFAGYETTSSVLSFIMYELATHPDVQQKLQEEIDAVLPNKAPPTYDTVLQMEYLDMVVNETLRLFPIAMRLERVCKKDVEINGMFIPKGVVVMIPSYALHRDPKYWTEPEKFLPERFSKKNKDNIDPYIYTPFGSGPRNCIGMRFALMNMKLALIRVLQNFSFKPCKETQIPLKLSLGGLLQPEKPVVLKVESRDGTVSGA

Work on `Cc1nc(N[C@H](C)c2cccc(C(F)(F)F)c2C)c2cn([C@H]3C[C@H](F)C3)c(=O)cc2n1` [I-45] yielded an IC50 [1] of 47 nM and an IC50 [2, 6] of 11 nM.
In the case of `C[C@@H](Nc1ncnc2cc(=O)n(C34CC(F)(C3)C4)cc12)c1cccc(C(C)(F)F)c1F` [I-78], the “HLM [% QH]” value [3] is reported as <24 % QH, the IC50 [2, 6] is reported as 9 nM and the “RLM [% QH]” value [4] is reported as <23 % QH. For the same compound, the “MLM [% QH]” value [5] was <24 % QH.
With `Cc1nc(N[C@H](C)c2cccc(C(F)(F)F)c2C)c2cn(C34CCN(CC3)CC4)c(=O)cc2n1` [I-128] the “HLM [% QH]” value [3] was 29 % QH, the “TDI 3A4 [%]” value (CYP3A4) was 98% and the IC50 [2, 7] was 2 nM. The “RLM [% QH]” value [4] was <23 % QH and the “MLM [% QH]” value [5] was <24 % QH.
Work on `Cc1nc(N[C@H](C)c2cccc(C(C)(F)F)c2)c2cn(C3(C(F)(F)F)CCOC3)c(=O)cc2n1` (stereo partly drawn) [I-129] yielded an IC50 [2, 7] of 18 nM.
With `Cc1c(=O)n(C2(C)CC2)cc2c(N[C@H](C)c3cccc(C(F)(F)F)c3)ncnc12` [I-173] the “TDI 3A4 [%]” value (CYP3A4) was 84% and the IC50 [2, 6] was 18 nM.
`C[C@@H](Nc1ncnc2c(C3CC3)c(=O)n(C3(C)CC3)cc12)c1cccc(C(F)F)c1F` [I-179] gave an IC50 [2, 7] of 11 nM.
